Experimental data reported in ChEMBL document CHEMBL1201862, “PubChem BioAssay data set” (2004).
Activity calls are given as the source filed them.

How the values were obtained:
[1] = test system: INS1; assay: INS-1E survival protection against cytokine death – cell-based, luminescence, retest, dose response (AID 449756); type: functional; conditions: Rattus norvegicus;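 note: cell death triggered by IL-1 beta plus TNF-alpha plus IFN-gamma mixture; protective hits raise ATP signal compared with cytokine alone wells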
[2] = target: T1, Sentrin-specific protease 6 (Homo sapiens, UniProt Q9GZR1); type: functional;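 note: Luminescence-based dose-response confirmatory assay of SENP6 inhibition, following up an ultra-high-throughput screen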
T1 sequence (Q9GZR1 whole entry): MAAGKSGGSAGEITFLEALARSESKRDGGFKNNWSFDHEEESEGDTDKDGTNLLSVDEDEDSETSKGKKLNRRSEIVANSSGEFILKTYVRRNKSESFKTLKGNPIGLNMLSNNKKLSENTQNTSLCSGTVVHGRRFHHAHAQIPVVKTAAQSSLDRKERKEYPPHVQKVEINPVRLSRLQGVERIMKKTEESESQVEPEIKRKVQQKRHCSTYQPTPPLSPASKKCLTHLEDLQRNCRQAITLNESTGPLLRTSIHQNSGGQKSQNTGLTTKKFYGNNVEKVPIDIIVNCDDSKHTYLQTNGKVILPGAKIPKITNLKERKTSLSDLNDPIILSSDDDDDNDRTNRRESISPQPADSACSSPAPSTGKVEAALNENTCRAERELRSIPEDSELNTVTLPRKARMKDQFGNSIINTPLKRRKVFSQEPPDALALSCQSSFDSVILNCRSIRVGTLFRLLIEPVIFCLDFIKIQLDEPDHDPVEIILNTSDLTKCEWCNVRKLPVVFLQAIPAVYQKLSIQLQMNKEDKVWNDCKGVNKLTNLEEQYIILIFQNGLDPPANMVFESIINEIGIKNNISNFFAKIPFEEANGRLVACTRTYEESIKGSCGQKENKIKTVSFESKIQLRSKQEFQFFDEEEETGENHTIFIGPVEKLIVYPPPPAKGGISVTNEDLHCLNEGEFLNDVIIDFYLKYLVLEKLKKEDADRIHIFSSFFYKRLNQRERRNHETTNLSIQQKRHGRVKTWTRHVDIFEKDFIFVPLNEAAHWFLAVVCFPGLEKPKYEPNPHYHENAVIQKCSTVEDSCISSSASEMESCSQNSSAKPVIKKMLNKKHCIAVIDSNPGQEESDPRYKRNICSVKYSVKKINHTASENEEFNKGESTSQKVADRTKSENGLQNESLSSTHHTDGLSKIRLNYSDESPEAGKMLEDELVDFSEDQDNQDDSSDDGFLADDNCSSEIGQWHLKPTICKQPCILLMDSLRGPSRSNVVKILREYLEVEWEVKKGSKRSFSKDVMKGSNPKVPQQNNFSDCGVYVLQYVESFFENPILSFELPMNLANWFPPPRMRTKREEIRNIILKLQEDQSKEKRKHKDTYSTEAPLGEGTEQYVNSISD

[3] = target: T2, Sentrin-specific protease 8 (Homo sapiens, UniProt Q96LD8); type: functional;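 note: luminescence read-out of SENP8 inhibition, dose-response confirmation following an ultra-high-throughput screen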
T2 sequence (Q96LD8 whole entry): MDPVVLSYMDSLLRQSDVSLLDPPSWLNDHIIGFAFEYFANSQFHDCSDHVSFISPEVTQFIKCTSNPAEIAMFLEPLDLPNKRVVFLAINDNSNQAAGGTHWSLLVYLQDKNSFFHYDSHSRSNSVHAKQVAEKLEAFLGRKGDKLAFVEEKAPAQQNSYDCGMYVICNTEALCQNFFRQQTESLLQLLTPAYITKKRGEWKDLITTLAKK

[4] = target: T3, Apoptotic protease-activating factor 1 (Homo sapiens, UniProt O14727); type: functional
T3 sequence (O14727 whole entry): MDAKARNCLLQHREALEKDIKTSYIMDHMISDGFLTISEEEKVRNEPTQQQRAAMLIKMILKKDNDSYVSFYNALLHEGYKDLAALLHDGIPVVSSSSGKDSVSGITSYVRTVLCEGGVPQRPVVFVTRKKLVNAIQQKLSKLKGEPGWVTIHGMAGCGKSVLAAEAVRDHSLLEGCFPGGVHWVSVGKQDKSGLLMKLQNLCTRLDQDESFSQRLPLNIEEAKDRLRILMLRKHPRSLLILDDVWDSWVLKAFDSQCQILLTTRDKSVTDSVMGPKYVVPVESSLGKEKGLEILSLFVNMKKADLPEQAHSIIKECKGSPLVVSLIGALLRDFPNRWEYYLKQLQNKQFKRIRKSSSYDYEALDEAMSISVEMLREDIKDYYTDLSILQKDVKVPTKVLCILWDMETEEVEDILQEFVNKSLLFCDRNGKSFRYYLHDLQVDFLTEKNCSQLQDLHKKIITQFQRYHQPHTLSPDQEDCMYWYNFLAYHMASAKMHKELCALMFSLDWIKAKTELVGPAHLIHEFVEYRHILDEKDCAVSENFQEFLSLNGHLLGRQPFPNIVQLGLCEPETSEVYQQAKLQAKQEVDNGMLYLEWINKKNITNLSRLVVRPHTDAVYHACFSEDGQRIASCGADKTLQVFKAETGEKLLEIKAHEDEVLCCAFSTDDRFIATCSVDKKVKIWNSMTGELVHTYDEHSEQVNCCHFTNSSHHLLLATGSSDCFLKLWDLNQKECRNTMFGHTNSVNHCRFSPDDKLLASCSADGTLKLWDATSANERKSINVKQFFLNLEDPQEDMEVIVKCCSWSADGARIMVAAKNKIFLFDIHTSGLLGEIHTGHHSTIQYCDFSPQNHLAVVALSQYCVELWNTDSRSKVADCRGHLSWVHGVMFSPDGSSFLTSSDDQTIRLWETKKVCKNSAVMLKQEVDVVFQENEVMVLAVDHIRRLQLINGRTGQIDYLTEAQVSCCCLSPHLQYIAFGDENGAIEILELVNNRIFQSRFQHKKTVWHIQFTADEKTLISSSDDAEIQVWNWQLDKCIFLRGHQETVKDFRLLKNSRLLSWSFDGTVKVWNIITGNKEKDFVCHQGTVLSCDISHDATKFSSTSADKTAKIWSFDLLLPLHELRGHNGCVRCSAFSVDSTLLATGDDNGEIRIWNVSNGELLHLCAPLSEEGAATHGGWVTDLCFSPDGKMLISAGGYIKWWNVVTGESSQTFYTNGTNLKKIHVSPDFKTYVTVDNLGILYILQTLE

[5] = DRD fibroblast viability loss – cell-based, non-viral oncogenic, luminescence, dose response (AID 1934); type: functional; conditions: Homo sapiens
[6] = test system: BJ; assay: cells; type: functional, cell-based; conditions: Homo sapiens
[7] = test system: BJ; assay: BJ-TERT-LT-ST fibroblast viability loss – cell-based, RAS-independent, luminescence, dose response (AID 1935); type: functional; conditions: Homo sapiens;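 note: BJ fibroblasts immortalized with TERT plus LT and ST oncogenes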

Row | Structure (SMILES) | AC50 [1] | IC50 [2] | IC50 [3] | IC50 [4] | EC50 [5] | EC50 [6] | EC50 [7]
1 | CCc1cc[n+](C2=C([N-]S(=O)(=O)c3cccs3)C(=O)c3ccccc3C2=O)cc1 | 2.76 µM (active) | 3.57 µM (active) | 8.48 µM (active) | 11.2 µM (active) | – | – | –
2 | O=C(NC1=C(NC2CCS(=O)(=O)C2)C(=O)c2ccccc2C1=O)c1ccccc1 (stereo not given) | – | – | – | 2.1 µM (active) | 14.6 µM (active) | 3.28 µM (active) | > 75 µM (not active)
3 | CCCC(=O)NC(c1ccc(N(C)C)cc1)c1ccc2cccnc2c1O (stereo not given) | 0.598 µM (active) | – | – | – | 2.54 µM (active) | 3.42 µM (active) | 2.72 µM (active)
4 | COc1ccccc1N(/N=C1\Sc2ccccc2C1=O)C(C)=O | – | 4.28 µM (active) | 5.39 µM (active) | 13.3 µM (active) | – | – | –
